Measured values published in publication PMC10287566, “Signaling-specific inhibition of the CB1 receptor for cannabis use disorder: phase 1 and phase 2a randomized trials” (Nature Medicine, 2023).
Where two headings read alike, the source gives them in different places.

What was measured:
85 receptors = test: Eurofins high-throughput binding screen; details: 10 µM
CYP and phase II enzymes = test: Drug metabolic pathways (CYP and phase II enzymes), metabolites; type: in vitro ADME
[1] = target: T1, hERG (human ether-a-go-go-related gene) (Homo sapiens, UniProt Q12809); test: hERG tail current in transfected HEK293 cells (GLP); type: cell-based; details: GLP safety pharmacology
T1 construct: expressed in transfected cells; host or cells: HEK293 (stably transfected)
T1 sequence (Q12809 whole entry): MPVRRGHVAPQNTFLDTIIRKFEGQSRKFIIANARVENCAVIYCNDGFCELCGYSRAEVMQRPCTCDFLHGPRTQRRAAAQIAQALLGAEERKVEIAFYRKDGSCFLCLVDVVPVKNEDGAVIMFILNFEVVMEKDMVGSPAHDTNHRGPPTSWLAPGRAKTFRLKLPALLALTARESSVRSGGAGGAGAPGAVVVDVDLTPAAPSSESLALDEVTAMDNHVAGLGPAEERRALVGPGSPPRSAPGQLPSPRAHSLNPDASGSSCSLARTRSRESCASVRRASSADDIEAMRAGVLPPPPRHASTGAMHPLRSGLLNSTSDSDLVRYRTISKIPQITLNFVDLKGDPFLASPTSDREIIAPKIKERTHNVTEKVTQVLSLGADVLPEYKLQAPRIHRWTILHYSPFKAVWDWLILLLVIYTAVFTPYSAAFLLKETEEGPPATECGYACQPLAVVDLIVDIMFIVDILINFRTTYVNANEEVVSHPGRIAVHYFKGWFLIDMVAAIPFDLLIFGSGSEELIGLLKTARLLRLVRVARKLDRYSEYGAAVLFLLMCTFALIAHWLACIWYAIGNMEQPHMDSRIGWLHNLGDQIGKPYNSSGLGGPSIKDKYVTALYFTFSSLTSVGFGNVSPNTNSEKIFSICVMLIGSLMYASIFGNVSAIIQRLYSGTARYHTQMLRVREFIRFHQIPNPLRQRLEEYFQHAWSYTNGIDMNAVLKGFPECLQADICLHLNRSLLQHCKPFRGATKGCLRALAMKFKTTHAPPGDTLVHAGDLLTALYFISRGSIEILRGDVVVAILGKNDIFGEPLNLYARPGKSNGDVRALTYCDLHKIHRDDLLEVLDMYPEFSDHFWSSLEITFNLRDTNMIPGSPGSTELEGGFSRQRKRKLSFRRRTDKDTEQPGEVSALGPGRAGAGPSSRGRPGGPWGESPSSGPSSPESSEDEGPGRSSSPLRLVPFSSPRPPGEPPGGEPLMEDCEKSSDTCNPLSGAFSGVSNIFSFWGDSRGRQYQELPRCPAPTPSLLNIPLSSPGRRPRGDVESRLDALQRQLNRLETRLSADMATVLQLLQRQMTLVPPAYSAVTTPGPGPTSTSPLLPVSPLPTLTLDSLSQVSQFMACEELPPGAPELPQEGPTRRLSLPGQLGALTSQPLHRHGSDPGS
Experimental: Cells were clamped to −80 mV, depolarized to 0 mV for 5 s allowing activation of hERG current and repolarized to −50 mV for 5 s allowing hERG tail current to deactivate. This experimental procedure was repeated at a frequency of 0.06 Hz. Currents were filtered at 1 kHz and acquired at the frequency of 2 kHz. Amplitude of hERG tail current was measured during the repolarizing pulse from 0 to −50 mV. […] Currents were measured before and after exposure to the test compound. The individual data were collected using pClamp software (release 8.2, AXON Instruments, Molecular Devices).

healthy volunteers = test: Phase 1 single-ascending-dose (SAD) study, safety
Experimental: Four single oral dose levels (0.2, 0.6, 2 and 6 mg) were given in the morning on day 1 in the SAD study, and three oral doses (0.6, 2 and 6 mg) were given in the morning of day 1 to day 7 in the MAD study, to independent dose cohorts. […] Each dose cohort comprised eight volunteers (six (5/1) active and two (1/1) placebo per dose level).
During the rest of the study, only volunteers with pathological values were excluded.
Participants were admitted to the research clinic at midday before dosing (day −1). In the SAD study, they remained in-house until day 8 for PK and PD samples and safety assessments. In the MAD study, participants remained in-house until day 14 and returned to the research facility on an outpatient basis to have PK and safety assessments at 216 h and 264 h (day 16 and day 18) after their last dose (day 7). Safety monitoring (physical examinations, vital sign measurements, 12-lead ECGs, clinical safety laboratory tests and AE monitoring) were performed throughout the studies. Psychometrics tests (Bond & Lader VAS, Addiction Research Center Inventory (49-item short form) (ARCI-49) and Profile of Mood States 65 self-report items (POMS-65)) and the Columbia-Suicide Severity Rating Scale (C-SSRS) test were performed at baseline, before dose and at 4 h and 24 h after dose on day 1 and day 7 (MAD study, only) and C-SSRS only at 24 h.
All participants who had AEs, whether considered associated with the use of the investigational product or not, were monitored for as long as needed to determine resolution.

[2] = GLP mutagenic and genotoxic studies (Ames, chromosome aberration, micronucleus); details: GLP in vitro and in vivo studies
Experimental: The dose of 816 µg per plate is approximately a concentration of 84 µM.
Human lymphocytes were taken from young (18–35 years old) healthy non-smoker individuals.
This assay was carried out both with and without metabolic activation using Aroclor 1254-induced S9 from rat livers (5%). In the test performed without metabolic activation, two treatment durations were studied: (1) 4 h + 16 h recovery period (short-term treatment) and (2) 20 h without recovery period (continuous treatment). In the test performed with metabolic activation, the treatment period of 4 h + 16 h recovery period with 5% S9 mix was used.
As a control for the genotoxicity induction, a single i.p. injection 24 h before sampling of the reference substance cyclophosphamide (CPA, Baxter, batch 5K044J in NaCl at 0.9% in distilled water, at a dose of 25 mg kg^−1 under a volume of 10 ml kg^−1) was used.

[3] = MAD study, plasma pharmacokinetics; type: in vivo, human; details: for Cmax / Tmax / half-life: human, plasma, oral; for Cmax: read-out: Cmax, mean (±SD); for Tmax: read-out: tmax, median (range)
Experimental: Samples were collected at the same timepoints on day 1 and day 7: before dose and 0.5, 1, 1.5, 2, 3, 4, 6, 8 and 12 h after dose. Additional samples were collected on day 2 to day 6 before dose (that is, 24 h from the previous dose) and on days […] (that is, 24, 48, 72, 96, 120, 144, 168, 216 and 264 h after the last dose at day 7).
For both SAD and MAD studies, the PK parameters were calculated using standard non-compartmental methods for those with sufficient plasma concentration data.

[4] = 0.6 mg/day, MAD Day 1, 0.6 mg/day
[5] = 0.6 mg/day, MAD Day 7, 0.6 mg/day

COc1ccc(CO[C@H]2CC[C@@]3(C)C(=CC[C@H]4[C@@H]5CC[C@H](C(C)=O)[C@@]5(C)CC[C@@H]43)C2)cc1 [AEF0117, 3β-(4-methoxybenzyloxy)pregn-5-en-20-one]
binding activity at 85 receptors (85 receptors): did not modify binding to any receptor
interaction with major drug metabolic pathways (CYP and phase II enzymes) (CYP and phase II enzymes): does not modify the activity of, nor is it notably metabolized by
adverse effects on hERG tail current [1]: did not show any adverse effects
Number of TEAEs (healthy volunteers; single 0.2 mg): 4 E
Number of participants with a TEAE leading to discontinuation (healthy volunteers; single 0.2 mg): 0 n (%)
Number of participants with an SAE (healthy volunteers; single 0.2 mg): 0 n (%)
Number of participants with at least one TEAE (healthy volunteers; single 0.2 mg): 2 (33.3) n (%)
Participants with TEAE: Mild (healthy volunteers; single 0.2 mg): 2 (33.3) n (%)
Participants with TEAE: Moderate (healthy volunteers; single 0.2 mg): 1 (16.7) n (%)
Participants with TEAE: Not related (healthy volunteers; single 0.2 mg): 1 (16.7) n (%)
Participants with TEAE: Severe (healthy volunteers; single 0.2 mg): 0 n (%)
TEAEs by SOC: Gastrointestinal disorders (healthy volunteers; single 0.2 mg): 2 (33.3) n (%)
TEAEs by SOC: Investigations (healthy volunteers; single 0.2 mg): 0 n (%)
TEAEs by SOC: Nervous system disorders (healthy volunteers; single 0.2 mg): 1 (16.7) n (%)
Number of TEAEs (healthy volunteers; single 0.6 mg): 0 E
Number of participants with a TEAE leading to discontinuation (healthy volunteers; single 0.6 mg): 0 n (%)
Number of participants with an SAE (healthy volunteers; single 0.6 mg): 0 n (%)
Number of participants with at least one TEAE (healthy volunteers; single 0.6 mg): 0 n (%)
Participants with TEAE: Mild (healthy volunteers; single 0.6 mg): 0 n (%)
Participants with TEAE: Moderate (healthy volunteers; single 0.6 mg): 0 n (%)
Participants with TEAE: Not related (healthy volunteers; single 0.6 mg): 0 n (%)
Participants with TEAE: Related (healthy volunteers; single 0.6 mg): 0 n (%)
Participants with TEAE: Severe (healthy volunteers; single 0.6 mg): 0 n (%)
TEAEs by SOC: Gastrointestinal disorders (healthy volunteers; single 0.6 mg): 0 n (%)
TEAEs by SOC: Investigations (healthy volunteers; single 0.6 mg): 0 n (%)
TEAEs by SOC: Nervous system disorders (healthy volunteers; single 0.6 mg): 0 n (%)
Number of TEAEs (healthy volunteers; single 2 mg): 2 E
Number of participants with a TEAE leading to discontinuation (healthy volunteers; single 2 mg): 0 n (%)
Number of participants with an SAE (healthy volunteers; single 2 mg): 0 n (%)
Number of participants with at least one TEAE (healthy volunteers; single 2 mg): 1 (8.3) n (%)
Participants with TEAE: Mild (healthy volunteers; single 2 mg): 1 (8.3) n (%)
Participants with TEAE: Moderate (healthy volunteers; single 2 mg): 0 n (%)
Participants with TEAE: Not related (healthy volunteers; single 2 mg): 0 n (%)
Participants with TEAE: Severe (healthy volunteers; single 2 mg): 0 n (%)
TEAEs by SOC: Gastrointestinal disorders (healthy volunteers; single 2 mg): 0 n (%)
TEAEs by SOC: Investigations (healthy volunteers; single 2 mg): 1 (8.3) n (%)
TEAEs by SOC: Nervous system disorders (healthy volunteers; single 2 mg): 0 n (%)
Number of TEAEs (healthy volunteers; single 6 mg): 0 E
Number of participants with a TEAE leading to discontinuation (healthy volunteers; single 6 mg): 0 n (%)
Number of participants with an SAE (healthy volunteers; single 6 mg): 0 n (%)
Number of participants with at least one TEAE (healthy volunteers; single 6 mg): 0 n (%)
Participants with TEAE: Mild (healthy volunteers; single 6 mg): 0 n (%)
Participants with TEAE: Moderate (healthy volunteers; single 6 mg): 0 n (%)
Participants with TEAE: Not related (healthy volunteers; single 6 mg): 0 n (%)
Participants with TEAE: Related (healthy volunteers; single 6 mg): 0 n (%)
Participants with TEAE: Severe (healthy volunteers; single 6 mg): 0 n (%)
TEAEs by SOC: Gastrointestinal disorders (healthy volunteers; single 6 mg): 0 n (%)
TEAEs by SOC: Investigations (healthy volunteers; single 6 mg): 0 n (%)
TEAEs by SOC: Nervous system disorders (healthy volunteers; single 6 mg): 0 n (%)
genotoxic or mutagenic activity [2]: did not show any genotoxic or mutagenic activity
concentration at 264 h as share of Cmax at Day 7 ([3]; MAD, all doses): 4%
Cmax [3, 4]: 4.6 ± 1.4 ng/mL
Tmax [3, 4]: 3 h
half-life ([3]; 0.6 mg/day, MAD Day 7, 0.6 mg/day, 0-264 h, read-out: t½, min-max): 153 to 252 h
Cmax [3, 5]: 3.3 ± 0.3 ng/mL
Tmax [3, 5]: 3 h
Cmax ([3]; 2 mg/day, MAD Day 1, 2 mg/day): 11.6 ± 3.7 ng/mL
Tmax ([3]; 2 mg/day, MAD Day 1, 2 mg/day): 3 h
half-life ([3]; 2 mg/day, MAD Day 7, 2 mg/day, 0-264 h, read-out: t½, min-max): 152 to 240 h
Cmax ([3]; 2 mg/day, MAD Day 7, 2 mg/day): 14.5 ± 4.9 ng/mL
Tmax ([3]; 2 mg/day, MAD Day 7, 2 mg/day): 3 h
Cmax ([3]; 6 mg/day, MAD Day 1, 6 mg/day): 35.9 ± 13.5 ng/mL
Tmax ([3]; 6 mg/day, MAD Day 1, 6 mg/day): 3.5 h
half-life ([3]; 6 mg/day, MAD Day 7, 6 mg/day, 0-264 h, read-out: t½, min-max): 160 to 258 h
Cmax ([3]; 6 mg/day, MAD Day 7, 6 mg/day): 37.1 ± 7.3 ng/mL
Tmax ([3]; 6 mg/day, MAD Day 7, 6 mg/day): 2.5 h
half-life ([3]; humans, MAD study, range between participants, read-out: terminal half-life): 152 to 259 h
